Test results published in US20210085640A1, “ACYLATED CATECHIN POLYPHENOLS AND METHODS OF THEIR USE FOR THE TREATMENT OF CANCER” (Flagship Pioneering Innovations V, Inc., priority 2018, published 2021).

How the values were obtained:
Assay type in all cases: cell-based
A-431 skin cancer cells = experiment: Cancer cell survival (CellTiter-Glo), A-431; parameters: Cell survival at given concentration: unit not given here; details: A-431 cells, 72 h
Protocol: (§1) The cells were prepared as follows. Cells were harvested during logarithmic growth, counted, and adjusted to 4.44×10^4 cells/mL with culture media. 90 μL of suspended cells were added to wells of 96-well plates for a final cell count of 4×10^3 cells/well. The plates were incubated overnight at 37 C with 5% CO2 overnight.
(§2) The test compounds were assayed as follows. Compound solutions were mixed at 10× final concentrations in cell media: 1 μM-10 mM (fatty acids) or 100 nM-1 mM (all other compounds). […] of solution was added to each well of cells in triplicate for each concentration. Well plates were incubated for 72 h at 37 C with 5% CO2 and then assayed with CellTiter-Glo by adding 50 μL of CTG solution to each well. Cells were lysed by shaking on an orbital shaker for 5 min. Plates were incubated at room temperature for 20 min and then each well's luminescence was measured. The surviving percentage of cells was determined as:
(§3) Survival %=(LumTest article−LumMedium control)/(LumNone treated−LumMedium control)[…]
(§4) Cytotoxicity was assessed at nine concentration levels for each compound and the 50% inhibition concentration (IC50) determined for each compound.

T24 bladder cancer cells = experiment: Cancer cell survival (CellTiter-Glo), T24; details: 72 h
Protocol: as §1, §2, §3
Efficacy was assessed at nine concentration levels for each compound and the 50% inhibition concentration (IC50) determined for each compound.

[1] = system: Daudi lymphoma cancer cells; experiment: Cancer cell survival (CellTiter-Glo), Daudi; details: 72 h
Protocol: as §1, §2, §3
Activity was assessed at nine concentration levels for each compound and the 50% inhibition concentration (IC50) determined for each compound.

A549 lung cancer cells = experiment: Cancer cell survival (CellTiter-Glo), A549; details: 72 h
Protocol: as §1, §2, §3, §4

AGS stomach cancer cells = experiment: Cancer cell survival (CellTiter-Glo), AGS; parameters: Cell survival at given concentration: unit not given here
Protocol: as §1, §2, §3, §4

[2] = system: HCT 116 colorectal cancer cells; experiment: Cancer cell survival (CellTiter-Glo), HCT 116; details: HCT 116 cells, 72 h
Protocol: as §1, §2, §3, §4

MCF7 breast cancer cells = experiment: Cancer cell survival (CellTiter-Glo), MCF7; details: 72 h
Protocol: as §1, §2, §3, §4

[3] = system: PC-3 prostate cancer cells; experiment: Cancer cell survival (CellTiter-Glo), PC-3; details: PC-3 cells, 72 h
Protocol: as §1, §2, §3, §4

For `Cc1c(C)c2c(c(C)c1O)CC[C@@](C)(CCC[C@H](C)CCC[C@H](C)CCCC(C)C)O2` [alpha-tocopherol], the “Cell survival at given concentration” value (A-431 skin cancer cells; 101 nM) was 1.00, the “Cell survival at given concentration” value (A-431 skin cancer cells; 318 nM) was 0.99 and the “Cell survival at given concentration” value (A-431 skin cancer cells; 1 μM) was 1.01. For the same compound, the “Cell survival at given concentration” value (A-431 skin cancer cells; 3 μM) was 1.01, the “Cell survival at given concentration” value (A-431 skin cancer cells; 10 μM) was 1.03 and the “Cell survival at given concentration” value (A-431 skin cancer cells; 32 μM) was 1.01. The “Cell survival at given concentration” value (A-431 skin cancer cells; 100 μM) was 1.02, the “Cell survival at given concentration” value (A-431 skin cancer cells; 316 μM) was 1.01 and the “Cell survival at given concentration” value (A-431 skin cancer cells; 1000 μM) was 1.04. For the same compound, the “Cell survival at given concentration” value (T24 bladder cancer cells; 101 nM) was 1.02, the “Cell survival at given concentration” value (T24 bladder cancer cells; 318 nM) was 1.01 and the “Cell survival at given concentration” value (T24 bladder cancer cells; 1 μM) was 0.96. The “Cell survival at given concentration” value (T24 bladder cancer cells; 3 μM) was 1.00, the “Cell survival at given concentration” value (T24 bladder cancer cells; 10 μM) was 0.99 and the “Cell survival at given concentration” value (T24 bladder cancer cells; 32 μM) was 1.06. For the same compound, the “Cell survival at given concentration” value (T24 bladder cancer cells; 100 μM) was 0.98, the “Cell survival at given concentration” value (T24 bladder cancer cells; 316 μM) was 1.07 and the “Cell survival at given concentration” value (T24 bladder cancer cells; 1000 μM) was 1.02. For the same compound, the “Cell survival at given concentration” value ([1]; 101 nM) was 0.98, the “Cell survival at given concentration” value ([1]; 318 nM) was 0.99 and the “Cell survival at given concentration” value ([1]; 1 μM) was 1.01. The “Cell survival at given concentration” value ([1]; 3 μM) was 1.00, the “Cell survival at given concentration” value ([1]; 10 μM) was 1.02 and the “Cell survival at given concentration” value ([1]; 32 μM) was 1.04. The “Cell survival at given concentration” value ([1]; 100 μM) was 1.04, the “Cell survival at given concentration” value ([1]; 316 μM) was 1.03 and the “Cell survival at given concentration” value ([1]; 1000 μM) was 1.02. For the same compound, the “Cell survival at given concentration” value (A549 lung cancer cells; 101 nM) was 1.03, the “Cell survival at given concentration” value (A549 lung cancer cells; 318 nM) was 1.05 and the “Cell survival at given concentration” value (A549 lung cancer cells; 1 μM) was 1.06. For the same compound, the “Cell survival at given concentration” value (A549 lung cancer cells; 3 μM) was 1.04, the “Cell survival at given concentration” value (A549 lung cancer cells; 10 μM) was 1.08 and the “Cell survival at given concentration” value (A549 lung cancer cells; 32 μM) was 1.09. For the same compound, the “Cell survival at given concentration” value (A549 lung cancer cells; 100 μM) was 1.08, the “Cell survival at given concentration” value (A549 lung cancer cells; 316 μM) was 1.07 and the “Cell survival at given concentration” value (A549 lung cancer cells; 1000 μM) was 1.02. For the same compound, the “Cell survival at given concentration” value (AGS stomach cancer cells; 101 nM) was 1.03, the “Cell survival at given concentration” value (AGS stomach cancer cells; 318 nM) was 1.03 and the “Cell survival at given concentration” value (AGS stomach cancer cells; 1 μM, Table 10.1) was 1.07. For the same compound, the “Cell survival at given concentration” value (AGS stomach cancer cells; 3 μM, Table 10.1) was 1.04, the “Cell survival at given concentration” value (AGS stomach cancer cells; 10 μM, Table 10.1) was 1.07 and the “Cell survival at given concentration” value (AGS stomach cancer cells; 32 μM, Table 10.1) was 1.06. The “Cell survival at given concentration” value (AGS stomach cancer cells; 100 μM, Table 10.1) was 1.09, the “Cell survival at given concentration” value (AGS stomach cancer cells; 316 μM) was 1.06 and the “Cell survival at given concentration” value (AGS stomach cancer cells; 1000 μM) was 1.06. For the same compound, the “Cell survival at given concentration” value ([2]; 101 nM) was 0.99, the “Cell survival at given concentration” value ([2]; 318 nM) was 0.98 and the “Cell survival at given concentration” value ([2]; 1 μM) was 1.00. For the same compound, the “Cell survival at given concentration” value ([2]; 3 μM) was 1.01, the “Cell survival at given concentration” value ([2]; 10 μM) was 1.01 and the “Cell survival at given concentration” value ([2]; 32 μM) was 1.03. For the same compound, the “Cell survival at given concentration” value ([2]; 100 μM) was 1.03, the “Cell survival at given concentration” value ([2]; 316 μM) was 0.98 and the “Cell survival at given concentration” value ([2]; 1000 μM) was 0.97. The “Cell survival at given concentration” value (MCF7 breast cancer cells; 101 nM) was 1.02, the “Cell survival at given concentration” value (MCF7 breast cancer cells; 318 nM) was 1.02 and the “Cell survival at given concentration” value (MCF7 breast cancer cells; 1 μM) was 1.04. The “Cell survival at given concentration” value (MCF7 breast cancer cells; 3 μM) was 1.05, the “Cell survival at given concentration” value (MCF7 breast cancer cells; 10 μM) was 1.05 and the “Cell survival at given concentration” value (MCF7 breast cancer cells; 32 μM) was 1.04. The “Cell survival at given concentration” value (MCF7 breast cancer cells; 100 μM) was 1.03, the “Cell survival at given concentration” value (MCF7 breast cancer cells; 316 μM) was 1.02 and the “Cell survival at given concentration” value (MCF7 breast cancer cells; 1000 μM) was 1.01. The “Cell survival at given concentration” value ([3]; 101 nM) was 1.01, the “Cell survival at given concentration” value ([3]; 318 nM) was 0.99 and the “Cell survival at given concentration” value ([3]; 1 μM) was 1.04. For the same compound, the “Cell survival at given concentration” value ([3]; 3 μM) was 1.00, the “Cell survival at given concentration” value ([3]; 10 μM) was 1.03 and the “Cell survival at given concentration” value ([3]; 32 μM) was 1.00. For the same compound, the “Cell survival at given concentration” value ([3]; 100 μM) was 0.99, the “Cell survival at given concentration” value ([3]; 316 μM) was 1.02 and the “Cell survival at given concentration” value ([3]; 1000 μM) was 1.01.
